These results are taken from patent US8058245B2, “Fused heterocycle derivative, medicinal composition containing the same, and medicinal use thereof” (Kissei Pharmaceutical Co., Ltd., priority 2004, dated 2011).

A word on the IC50: it is the concentration at which inhibition is half-maximal. A higher IC50 goes with weaker potency.

The structures appear in SMILES notation.

One assay has as its target T1, human SGLT1 (Homo sapiens, UniProt P13866).
T1 construct: expressed in transfected cells
T1 sequence (P13866 1-664): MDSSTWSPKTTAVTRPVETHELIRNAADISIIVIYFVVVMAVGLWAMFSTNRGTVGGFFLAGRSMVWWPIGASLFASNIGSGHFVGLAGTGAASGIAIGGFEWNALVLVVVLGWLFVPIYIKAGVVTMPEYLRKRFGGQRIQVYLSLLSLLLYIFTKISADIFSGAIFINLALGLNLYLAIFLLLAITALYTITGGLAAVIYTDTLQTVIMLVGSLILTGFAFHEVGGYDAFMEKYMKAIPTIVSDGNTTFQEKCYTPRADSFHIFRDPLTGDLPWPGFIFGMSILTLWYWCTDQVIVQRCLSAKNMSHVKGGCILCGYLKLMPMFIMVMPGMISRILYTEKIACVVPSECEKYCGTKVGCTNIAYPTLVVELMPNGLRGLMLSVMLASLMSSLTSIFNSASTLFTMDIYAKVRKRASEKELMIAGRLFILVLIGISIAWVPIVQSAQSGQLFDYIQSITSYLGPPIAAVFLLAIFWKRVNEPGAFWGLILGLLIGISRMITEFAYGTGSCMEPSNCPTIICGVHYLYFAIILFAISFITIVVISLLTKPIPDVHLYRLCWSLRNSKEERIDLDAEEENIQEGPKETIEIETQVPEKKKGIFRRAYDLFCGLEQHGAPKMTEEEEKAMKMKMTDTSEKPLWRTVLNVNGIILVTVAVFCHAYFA
Briefly: Assay for inhibitory effects on human SGLT1 activity (uptake of methyl-α-D-glucopyranoside in CS1-5-11D cells). The settings on record: CHO-K1 cells stably expressing human SGLT1 (CS1-5-11D); 50% inhibition of uptake of 1 mM 14C-labeled/non-labeled methyl-α-D-glucopyranoside, 37° C., 1 hour. Format: cell-based. The method, then: Test Example 1 Assay for Inhibitory Effects on Human SGLT1 Activity 1) Cloning and Construction of the Vector Expressing Human SGLT1 The cDNA library was prepared for PCR amplification by reverse transcription from total RNA deprived from human small intestine (Ori gene) using oligo-dT as a primer. Using this cDNA library as a template, the DNA fragment coding 1 to 2005 bp of human SGLT1 (ACCESSION: M24847), which was reported by Hediger et al., was amplified by PCR method and inserted into the multi-cloning site of pcDNA3.1 (−) (Invitrogen). The DNA sequence inserted was perfectly matched to the previously reported sequence. 2) Establishment of Cell Line Stably Expressing Human SGLT1 The expression vector of human SGLT1 was digested by Sca I into a linear DNA. The linear DNA was transfected into CHO-K1 cells by means of lipofection (Effectene Transfection Reagent: QIAGEN). Neomycin resistant cell lines were selected by culture in the medium containing G418 (1 mg/mL, LIFE TECHNOLOGIES), and then the activity against the uptake of methyl-α-D-glucopyranoside was measured by the method described below. […] Radio activity was measured by means of micro-scintillation counter TopCount (Packard). One hundred % was set to the difference between the uptake in the control group and the basal uptake, and the uptake of methyl α-D-glucopyranoside at each drug concentration were calculated. […]

The target of the next assay is T2, human SGLT2 (Homo sapiens, UniProt P31639).
T2 construct: expressed in transfected cells
T2 sequence (P31639 1-672): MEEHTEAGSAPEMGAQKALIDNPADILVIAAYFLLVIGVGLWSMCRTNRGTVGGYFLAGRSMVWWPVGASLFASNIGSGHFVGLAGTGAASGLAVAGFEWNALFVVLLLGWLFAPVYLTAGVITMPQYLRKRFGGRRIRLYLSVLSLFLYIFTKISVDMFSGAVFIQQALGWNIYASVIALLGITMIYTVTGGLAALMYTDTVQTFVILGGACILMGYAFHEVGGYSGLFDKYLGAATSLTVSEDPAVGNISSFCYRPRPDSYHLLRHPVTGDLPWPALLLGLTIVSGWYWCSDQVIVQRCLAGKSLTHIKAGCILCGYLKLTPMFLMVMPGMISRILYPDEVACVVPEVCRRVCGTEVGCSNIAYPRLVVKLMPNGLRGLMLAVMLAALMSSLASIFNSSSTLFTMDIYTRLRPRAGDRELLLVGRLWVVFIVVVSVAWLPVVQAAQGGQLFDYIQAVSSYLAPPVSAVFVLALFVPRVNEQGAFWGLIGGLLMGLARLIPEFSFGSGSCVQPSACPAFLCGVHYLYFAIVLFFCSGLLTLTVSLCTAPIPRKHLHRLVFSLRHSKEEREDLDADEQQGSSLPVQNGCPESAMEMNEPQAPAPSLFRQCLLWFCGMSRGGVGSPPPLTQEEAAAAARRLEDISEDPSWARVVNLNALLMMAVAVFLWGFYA
The assay is described as follows: Assay for inhibitory effects on human SGLT2 activity (uptake of methyl-α-D-glucopyranoside in CS2-5E cells). As to conditions: CHO-K1 cells stably expressing human SGLT2 (CS2-5E); 50% inhibition of uptake of 1 mM 14C-labeled/non-labeled methyl-α-D-glucopyranoside, 37° C., 1 hour. Format: cell-based. The method, then:
Assay for Inhibitory Effects on Human SGLT2 Activity
1) Cloning and Construction of the Vector Expressing Human SGLT2
The cDNA library was prepared for PCR amplification by reverse transcription from total RNA deprived from human kidney (Ori gene) using oligo-dT as a primer. Using this cDNA library as a template, the DNA fragment coding 2 to 2039 bp of human SGLT2 (ACCESSION: M95549, M95299), which was reported by R. G. Wells et al., was amplified by PCR method and inserted into the multi-cloning site of pcDNA3.1 (−) (Invitrogen). The DNA sequence inserted was perfectly matched to the previously reported sequence.
2) Establishment of Cell Line Stably Expressing Human SGLT2
The expression vector of human SGLT2 was digested by Sca I into a linear DNA. The linear DNA was transfected into CHO-K1 cells by means of lipofection (Effectene Transfection Reagent: QIAGEN). Neomycin resistant cell lines were selected by culture in the medium containing G418 (1 mg/mL, LIFE TECHNOLOGIES), and then the activity against the uptake of methyl-α-D-glucopyranoside was measured by the method described below. […] CS2-5E cells were cultured in the presence of G418 at 200 μg/mL. […]
CS2-5E cells were seeded into a 96-well culture plate at a density of 3×10^4 cells/well and cultured for 2 days, and were used in the uptake assay. […] Radio activity was measured by means of micro-scintillation counter TopCount (Packard). […]

`OC[C@H]1O[C@@H](c2ccc3scc(CCc4ccccc4)c3c2)[C@H](O)[C@@H](O)[C@@H]1O` [Example 1, 1-[3-(2-Phenylethyl)benzo[b]thiophen-5-yl]-1-deoxy-β-D-glucopyranose] displayed a concentration for half-maximal inhibition (IC50) against human SGLT1 of 1500 nM.

For the compound `COc1cc2occ(CCc3ccccc3)c2cc1[C@@H]1O[C@H](CO)[C@@H](O)[C@H](O)[C@H]1O` [Example 2, 1-[6-Methoxy-3-(2-phenylethyl)benzo[b]furan-5-yl]-1-deoxy-β-D-glucopyranose], inhibition against human SGLT2 was half-maximal at 57 nM (IC50).

As for `CCc1ccc(Cc2csc3ccc([C@@H]4O[C@H](CO)[C@@H](O)[C@H](O)[C@H]4O)cc23)cc1` [Example 9], the IC50 on human SGLT2 came to 1.4 nM.
